Laboratory results from US6399654B1, “Biflavanoids and derivatives thereof as antiviral agents” (priority 1995, dated 2002).
≈ marks a conversion by molar mass, not a printed value. Like-named read-outs stand apart in the source and are kept apart here.

Experiments:
[1] = test system: Influenza A (H1N1) Texas/36/91; assay: microbe, parasite or virus in culture; assay type: cell-based, influenza A virus; settings: Influenza A virus, MDCK; Influenza A (H1N1) Texas/36/91; read-out: CPE Inhibition EC50
[2] = test system: Influenza A (H1N1) Texas/36/91; assay: microbe, parasite or virus in culture; assay type: cell-based, influenza A virus; settings: Influenza A virus, MDCK; Influenza A (H1N1) Texas/36/91; read-out: Neutral Red EC50
[3] = test system: Influenza A (H3N2) Beijing/32/92; assay: microbe, parasite or virus in culture; assay type: cell-based, influenza A virus; settings: Influenza A virus, MDCK; Influenza A (H3N2) Beijing/32/92; read-out: CPE Inhibition EC50
[4] = test system: Influenza A (H3N2) Beijing/32/92; assay: microbe, parasite or virus in culture; assay type: cell-based, influenza A virus; settings: Influenza A virus, MDCK; Influenza A (H3N2) Beijing/32/92; read-out: Neutral Red EC50
[5] = test system: Influenza B Panama/45/90; assay: microbe, parasite or virus in culture; assay type: cell-based; settings: Influenza B virus, MDCK; Influenza B Panama/45/90; read-out: CPE Inhibition EC50
[6] = test system: Influenza B Panama/45/90; assay: microbe, parasite or virus in culture; assay type: cell-based; settings: Influenza B virus, MDCK, read-out: Neutral Red EC50
[7] = test system: Measles Virus; assay: microbe, parasite or virus in culture; assay type: cell-based; settings: Measles morbillivirus, BSC-1; Measles Virus; read-out: CPI Inhibition EC50
[8] = test system: Measles Virus; assay: Measles virus neutral red dye uptake in BSC-1 cells; assay type: cell-based; settings: Measles morbillivirus, BSC-1
[9] = test system: Adenovirus Type 5; assay: microbe, parasite or virus in culture; assay type: cell-based; settings: Human mastadenovirus C, A549, read-out: CPE Inhibition EC50
[10] = test system: Adenovirus Type 5; assay: Adenovirus type 5 neutral red dye uptake in A549 cells; assay type: cell-based; settings: Human mastadenovirus C, A549; Adenovirus Type 5; read-out: Neutral Red EC50
[11] = test system: Parainfluenza Type 3 Virus; assay: organism not typed; assay type: cell-based; settings: MA104; Parainfluenza Type 3 Virus; read-out: CPI Inhibition EC50
[12] = test system: Parainfluenza Type 3 Virus; assay: organism not typed; assay type: cell-based; settings: MA104, read-out: Neutral Red EC50
[13] = test system: Respiratory Syncytial Virus; assay: microbe, parasite or virus in culture; assay type: cell-based; settings: human respiratory syncytial virus, MA104; read-out: CPE Inhibition EC50
[14] = test system: Respiratory Syncytial Virus; assay: microbe, parasite or virus in culture; assay type: cell-based; settings: human respiratory syncytial virus, MA104; read-out: Neutral Red EC50
[15] = biological target: T1, HIV-1 RT (Human immunodeficiency virus type 1 group M subtype B, UniProt P03366); assay: Anti-HIV-1 RT assay (recombinant enzyme); assay type: biochemical; settings: for inhibition at 200 µg/mL: read-out: Anti-HIV-1 RT % Inhibition at 200 μg/ml; for Anti-HIV-1 RT IC50: values in parentheses or in words
T1 construct: made in house; host or cells: Escherichia coli

[16] = in vitro; settings: dog
[17] = in vitro; settings: dog, Neutral Red IC50 (cytotoxic)
[18] = in vitro; settings: African green monkey
[19] = in vitro; settings: human
[20] = in vitro; settings: African green monkey; remark: listed apart in the source
[21] = test system: HCMV; assay: HCMV CPE inhibition in HFF cells; settings: for HCMV SI (CC50/EC50): HFF Cells; for EC50: Human betaherpesvirus 5, HFF, read-out: HCMV CPE Inhibition EC50
[22] = test system: HSV-1; assay: HSV-1 CPE inhibition in HFF cells; settings: for HSV-1 SI (CC50/EC50): HFF Cells; for EC50: Human alphaherpesvirus 1, HFF, read-out: HSV-1 CPE Inhibition EC50
[23] = test system: HSV-2; assay: HSV-2 CPE inhibition in HFF cells; settings: for HSV-2 SI (CC50/EC50): HFF Cells; for EC50: Human alphaherpesvirus 2, HFF, read-out: HSV-2 CPE Inhibition EC50
[24] = test system: VZV; assay: VZV plaque reduction assay in HFF cells; settings: for VZV SI (CC50/EC50): HFF Cells; for EC50: Human alphaherpesvirus 3, HFF, read-out: VZV Plaque Reduction EC50
[25] = Cytotoxicity by neutral red dye uptake, A549 cells; settings: human
[26] = Cytotoxicity by neutral red dye uptake, BSC-1 cells; settings: African green monkey
[27] = Cytotoxicity by neutral red dye uptake, MA-104 cells; settings: African green monkey, Neutral Red IC50 (cytotoxic)
[28] = Cytotoxicity (CC50) in HFF cells in the herpes virus tests; settings: human
[29] = test system: Hepatitis B Virus (HBV); assay: Inhibition of HBV replication in 2.2.15 cells, extracellular (virion) HBV DNA; settings: for anti-HBV activity (in words): 2.2.15 cells; for EC50 / EC90: Hepatitis B virus, 216 h; for EC50: read-out: EC50 (50% effective dose), HBV Virion, 2.2.15 cells, extracellular (virion) HBV DNA, 9 days treatment; for EC90: read-out: EC90 (90% effective dose), HBV Virion, 2.2.15 cells, extracellular (virion) HBV DNA, 9 days treatment;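 on all read-outs here: extracellular virion HBV DNA in culture medium measured by slot blot hybridization with a 32P-labeled HBV probe, quantified against HBV DNA standards, after 9 days of daily dosing, compared with day 0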
[30] = test system: HFF Cells; assay: Cytotoxicity (CC50) in HFF cells in the herpes virus tests; settings: HFF Cells, HSV-2 test
[31] = CPE Inhibition IC50 (50% cell inhibitory (cytotoxic) concentration), Influenza A (H1N1) test
[32] = CPE Inhibition IC50 (cytotoxic), Influenza A (H3N2) test
[33] = CPE Inhibition IC50 (cytotoxic), Influenza B test
[34] = CPE Inhibition IC50 (cytotoxic), Respiratory Syncytial Virus test
[35] = CPI Inhibition IC50 (cytotoxic), Parainfluenza Type 3 Virus test
[36] = Parainfluenza Type 3 Virus test
[37] = Respiratory Syncytial Virus test

O=C1CC(c2ccc(O)cc2)Oc2cc(O)c(-c3c(O)cc4c(c3O)C(=O)CC(c3ccc(O)cc3)O4)c(O)c21 (centres unmarked) [Succedaneaflavanone (11), succedaneaflavanone]
EC50 [1]: > 3.2 µg/mL | EC50 [2]: 5.2 µg/mL (≈ 9.59 µM) | EC50 [3]: > 10 µg/mL | EC50 [4]: 12 µg/mL (≈ 22.1 µM) | EC50 [5]: 0.97 µg/mL (≈ 1.79 µM) | EC50 [6]: 2.2 µg/mL (≈ 4.06 µM) | EC50 [7]: ~32 µg/mL (≈ 59 µM) | EC50 [8]: < 12 µg/mL | EC50 [9]: 10 µg/mL (≈ 18.4 µM) | EC50 [10]: 19 µg/mL (≈ 35 µM) | EC50 [11]: > 10 µg/mL | EC50 [12]: 23 µg/mL (≈ 42.4 µM) | EC50 [13]: > 10 µg/mL | EC50 [14]: ~16 µg/mL (≈ 29.5 µM) | activity against HIV-1 RT (in words) [15]: completely inactive | inhibition at 200 µg/mL [15]: 22.1% | Anti-HIV-1 RT IC50 [15]: Inactive | IC50 [16, 31]: 4.9 µg/mL (≈ 9.03 µM) | IC50 [16, 32]: 12 µg/mL (≈ 22.1 µM) | IC50 [16, 33]: 15 µg/mL (≈ 27.6 µM) | IC50 ([17]; Influenza A (H1N1) test): 5 µg/mL (≈ 9.22 µM) | IC50 ([17]; Influenza A (H3N2) test): 12 µg/mL (≈ 22.1 µM) | IC50 ([17]; Influenza B test): 7 µg/mL (≈ 12.9 µM) | IC50 [18]: < 23 µg/mL | IC50 [19]: 22 µg/mL (≈ 40.6 µM) | IC50 [20, 34]: ~13 µg/mL (≈ 24 µM) | IC50 [20, 35]: ~22 µg/mL (≈ 40.6 µM) | HCMV SI (CC50/EC50) [21]: <2.7 | EC50 [21]: > 20 µg/mL | HSV-1 SI (CC50/EC50) [22]: <3.0 | EC50 [22]: > 20 µg/mL | HSV-2 SI (CC50/EC50) [23]: <3.0 | EC50 [23]: > 20 µg/mL | VZV SI (CC50/EC50) [24]: < 3 | VZV SI (CC50/EC50) ([24]; listed as Succedaneaflavone (11)): <3.0 | EC50 [24]: > 20 µg/mL | IC50 [25]: 27 µg/mL (≈ 49.8 µM) | IC50 [26]: < 20 µg/mL | IC50 [27, 36]: ~29 µg/mL (≈ 53.5 µM) | IC50 [27, 37]: ~10 µg/mL (≈ 18.4 µM) | CC50 at 3 days [28]: 60.7 µg/mL (≈ 112 µM) | CC50 at 10 days [28]: 60 µg/mL (≈ 111 µM) | CC50 at 14 days [28]: 55.5 µg/mL (≈ 102 µM) | anti-HBV activity (in words) [29]: inactive | anti-HBV activity (in words) ([29]; listed as succendaneaflavanone): little or no anti-HBV activity | EC50 [29]: > 100 µM | EC90 [29]: > 100 µM

COc1ccc(-c2cc(=O)c3c(OC)cc(OC)c(C4C(=O)c5c(OC)cc(OC)cc5OC4c4ccc(OC)cc4)c3o2)cc1 (centres unmarked) [Volkensiflavone hexamethyl ether (6), volkensiflavone hexamethyl ether]
EC50 [1]: ~100 µg/mL (≈ 160 µM) | EC50 [2]: ~100 µg/mL (≈ 160 µM) | EC50 [3]: ~100 µg/mL (≈ 160 µM) | EC50 [4]: ~100 µg/mL (≈ 160 µM) | EC50 [5]: 2.6 µg/mL (≈ 4.16 µM) | EC50 [6]: < 20 µg/mL | EC50 [7]: < 70 µg/mL | EC50 [8]: < 7 µg/mL | EC50 [10]: > 100 µg/mL | EC50 [12]: > 32 µg/mL | EC50 [13]: ~18 µg/mL (≈ 28.8 µM) | EC50 [14]: > 32 µg/mL | activity against HIV-1 RT (in words) [15]: inactive | inhibition at 200 µg/mL [15]: 0% | Anti-HIV-1 RT IC50 [15]: Inactive | IC50 [16, 31]: < 24 µg/mL | IC50 [16, 32]: ~100 µg/mL (≈ 160 µM) | IC50 [16, 33]: ~100 µg/mL (≈ 160 µM) | IC50 ([17]; Influenza A (H1N1) test): ~100 µg/mL (≈ 160 µM) | IC50 ([17]; Influenza A (H3N2) test): ~100 µg/mL (≈ 160 µM) | IC50 ([17]; Influenza B test): ~100 µg/mL (≈ 160 µM) | IC50 [18]: < 60 µg/mL | IC50 [19]: 47 µg/mL (≈ 75.2 µM) | IC50 [20, 34]: ~30 µg/mL (≈ 48 µM) | IC50 [20, 35]: ~15 µg/mL (≈ 24 µM) | HCMV SI (CC50/EC50) [21]: 0 | EC50 [21]: > 100 µg/mL | HSV-1 SI (CC50/EC50) [22]: 0 | EC50 [22]: > 100 µg/mL | HSV-2 SI (CC50/EC50) [23]: 0 | EC50 [23]: > 100 µg/mL | VZV SI (CC50/EC50) [24]: 3.4 | EC50 [24]: 3.3 µg/mL (≈ 5.28 µM) | IC50 [25]: 50 µg/mL (≈ 80 µM) | IC50 [26]: < 13 µg/mL | IC50 [27, 36]: ~33 µg/mL (≈ 52.8 µM) | IC50 [27, 37]: ~59 µg/mL (≈ 94.5 µM) | CC50 at 3 days [28]: > 100 µg/mL | CC50 at 10 days [28]: 11.1 µg/mL (≈ 17.8 µM) | CC50 at 14 days [28]: > 100 µg/mL | HSV-2 CPE Inhibition CC50 [30]: >100 µg/mL | anti-HBV activity (in words) [29]: moderate anti-HBV activity | EC50 [29]: 11 µM | EC90 [29]: 108 µM | SI (CC50/EC90), HBV Virion ([29]; selective index): 1.3
